Assay results reported in patent US10131652B2, “Pyrimidinyloxy benzene derivatives as herbicides” (E. I. DU PONT DE NEMOURS AND COMPANY, priority 2014, dated 2018).

Experiments:
Assay type in all cases: in vivo
[1] = test system: barnyardgrass (Echinochloa crus-galli); assay: Test B pre-/postemergence plant response
Source text: (§1) Seeds of plant species selected from bamyardgrass (Echinochloa crus-galli), kochia (Kochia scoparia), ragweed (common ragweed, Ambrosia elatior), Italian ryegrass (Lolium multiflorum), large (Lg) crabgrass (Digitaria sanguinalis), giant foxtail (Setaria faberii), momingglory (Ipomoea spp.), pigweed (Amaranthus retroflexus), velvetleaf (Abutilon theophrasti), wheat (Triticum aestivum), and corn (Zea mays) were planted into a blend of loam soil and sand and treated preemergence with a directed soil spray using test chemicals formulated in a non-phytotoxic solvent mixture which included a surfactant. At the same time, plants selected from these crop and weed species and also blackgrass (Alopecurus myosuroides), and galium (catchweed bedstraw, Galium aparine) were planted in pots containing the same blend of loam soil and sand and treated with postemergence applications of test chemicals formulated in the same manner. Plants ranged in height from 2 to 10 cm and were in the one- to two-leaf stage for the postemergence treatment. Treated plants and untreated controls were maintained in a greenhouse for approximately 10 days, after which time all treated plants were compared to untreated controls and visually evaluated for injury. Plant response ratings, summarized in Table B, are based on a 0 to 100 scale where 0 is no effect and 100 is complete control. A dash (-) response means no test result.

[2] = test system: corn (Zea mays); assay: Test B pre-/postemergence plant response
Source text: as §1

[3] = test system: pigweed (Amaranthus retroflexus); assay: Test B pre-/postemergence plant response
Source text: as §1

[4] = test system: velvetleaf (Abutilon theophrasti); assay: Test B pre-/postemergence plant response; conditions: 1000 g ai/ha, 0 to 100 scale (0 no effect, 100 complete control)
Source text: as §1

[5] = test system: morningglory (Ipomoea spp.); assay: Test B pre-/postemergence plant response; conditions: 1000 g ai/ha, 0 to 100 scale (0 no effect, 100 complete control)
Source text: as §1

[6] = test system: wheat (Triticum aestivum); assay: Test B pre-/postemergence plant response
Source text: as §1

[7] = test system: large (Lg) crabgrass (Digitaria sanguinalis); assay: Test B pre-/postemergence plant response; conditions: 1000 g ai/ha, 0 to 100 scale (0 no effect, 100 complete control)
Source text: as §1

[8] = test system: giant foxtail (Setaria faberii); assay: Test B pre-/postemergence plant response
Source text: as §1

[9] = test system: kochia (Kochia scoparia); assay: Test B pre-/postemergence plant response
Source text: as §1

[10] = test system: ragweed (common ragweed, Ambrosia elatior); assay: Test B pre-/postemergence plant response
Source text: as §1

[11] = test system: Italian ryegrass (Lolium multiflorum); assay: Test B pre-/postemergence plant response
Source text: as §1

[12] = test system: galium (catchweed bedstraw, Galium aparine); assay: Test B postemergence plant response
Source text: (§2) At the same time, plants selected from these crop and weed species and also blackgrass (Alopecurus myosuroides), and galium (catchweed bedstraw, Galium aparine) were planted in pots containing the same blend of loam soil and sand and treated with postemergence applications of test chemicals formulated in the same manner. Plants ranged in height from 2 to 10 cm and were in the one- to two-leaf stage for the postemergence treatment. Treated plants and untreated controls were maintained in a greenhouse for approximately 10 days, after which time all treated plants were compared to untreated controls and visually evaluated for injury. Plant response ratings, summarized in Table B, are based on a 0 to 100 scale where 0 is no effect and 100 is complete control. A dash (-) response means no test result.

[13] = test system: blackgrass (Alopecurus myosuroides); assay: Test B postemergence plant response
Source text: as §2

[14] = Postemergence, 1000 g ai/ha, 0 to 100 scale (0 no effect, 100 complete control)
[15] = Preemergence, 1000 g ai/ha, 0 to 100 scale (0 no effect, 100 complete control)
[16] = Postemergence, 500 g ai/ha, 0 to 100 scale (0 no effect, 100 complete control)
[17] = Preemergence, 500 g ai/ha, 0 to 100 scale where 0 is no effect and 100 is complete control
[18] = 31 g ai/ha, Postemergence, 0 to 100 scale, 0 no effect, 100 complete control
[19] = 125 g ai/ha, postemergence, 0 to 100 scale, 0 no effect, 100 complete control
[20] = Preemergence, 31 g ai/ha, 0 to 100 scale (0 no effect, 100 complete control)
[21] = Preemergence, 125 g ai/ha, 0 to 100 scale where 0 is no effect and 100 is complete control

SMILES: CN(C)c1ccc(-c2ccccc2Oc2ncc(Cl)cn2)cn1 [Compound 2]
- Plant response rating, Barnyardgrass [1, 14]: 0
- Plant response rating, Barnyardgrass [1, 15]: 0
- Plant response rating, Corn [2, 14]: 0
- Plant response rating, Corn [2, 15]: 0
- Plant response rating, Pigweed [3, 14]: 70
- Plant response rating, Pigweed [3, 15]: 100
- Plant response rating, Velvetleaf ([4]; Postemergence): 50
- Plant response rating, Velvetleaf ([4]; Preemergence): 20
- Plant response rating, Morningglory ([5]; Postemergence): 40
- Plant response rating, Morningglory ([5]; Preemergence): 0
- Plant response rating, Wheat [6, 14]: 0
- Plant response rating, Wheat [6, 15]: 0
- Plant response rating, Crabgrass, Large ([7]; Postemergence): 0
- Plant response rating, Crabgrass, Large ([7]; Preemergence): 10
- Plant response rating, Foxtail, Giant [8, 14]: 0
- Plant response rating, Foxtail, Giant [8, 15]: 10

SMILES: Clc1cnc(Oc2ccccc2-c2ncc(Cl)cn2)nc1 [Compound 3]
- Plant response rating, Barnyardgrass [1, 14]: 50
- Plant response rating, Barnyardgrass [1, 15]: 60
- Plant response rating, Corn [2, 14]: 10
- Plant response rating, Corn [2, 15]: 0
- Plant response rating, Pigweed [3, 14]: 70
- Plant response rating, Pigweed [3, 15]: 50
- Plant response rating, Velvetleaf ([4]; Postemergence): 100
- Plant response rating, Velvetleaf ([4]; Preemergence): 90
- Plant response rating, Morningglory ([5]; Postemergence): 60
- Plant response rating, Morningglory ([5]; Preemergence): 0
- Plant response rating, Wheat [6, 14]: 10
- Plant response rating, Wheat [6, 15]: 0
- Plant response rating, Crabgrass, Large ([7]; Postemergence): 10
- Plant response rating, Crabgrass, Large ([7]; Preemergence): 40
- Plant response rating, Foxtail, Giant [8, 14]: 20
- Plant response rating, Foxtail, Giant [8, 15]: 70

SMILES: Brc1cnc(Oc2ccccc2-c2nnco2)nc1 [Compound 5]
- Plant response rating, Barnyardgrass [1, 14]: 20
- Plant response rating, Barnyardgrass [1, 15]: 0
- Plant response rating, Corn [2, 14]: 0
- Plant response rating, Corn [2, 15]: 0
- Plant response rating, Pigweed [3, 14]: 70
- Plant response rating, Pigweed [3, 15]: 90
- Plant response rating, Velvetleaf ([4]; Postemergence): 30
- Plant response rating, Velvetleaf ([4]; Preemergence): 20
- Plant response rating, Morningglory ([5]; Postemergence): 20
- Plant response rating, Morningglory ([5]; Preemergence): 0
- Plant response rating, Wheat [6, 14]: 0
- Plant response rating, Wheat [6, 15]: 0
- Plant response rating, Crabgrass, Large ([7]; Postemergence): 0
- Plant response rating, Crabgrass, Large ([7]; Preemergence): 0
- Plant response rating, Foxtail, Giant [8, 14]: 0
- Plant response rating, Foxtail, Giant [8, 15]: 0

SMILES: Clc1cnc(Oc2ccccc2-c2nnco2)nc1 [Compound 6]
- Plant response rating, Barnyardgrass [1, 14]: 0
- Plant response rating, Barnyardgrass [1, 15]: 0
- Plant response rating, Corn [2, 14]: 0
- Plant response rating, Corn [2, 15]: 0
- Plant response rating, Pigweed [3, 14]: 70
- Plant response rating, Pigweed [3, 15]: 70
- Plant response rating, Velvetleaf ([4]; Postemergence): 30
- Plant response rating, Velvetleaf ([4]; Preemergence): 20
- Plant response rating, Morningglory ([5]; Postemergence): 20
- Plant response rating, Morningglory ([5]; Preemergence): 0
- Plant response rating, Wheat [6, 14]: 0
- Plant response rating, Wheat [6, 15]: 0
- Plant response rating, Crabgrass, Large ([7]; Postemergence): 20
- Plant response rating, Crabgrass, Large ([7]; Preemergence): 0
- Plant response rating, Foxtail, Giant [8, 14]: 0
- Plant response rating, Foxtail, Giant [8, 15]: 0

SMILES: ON=Cc1cc(-c2ccccc2Oc2ncc(Cl)cn2)no1 [Compound 37]
- Plant response rating, Kochia [9, 16]: 0
- Plant response rating, Kochia [9, 17]: 0
- Plant response rating, Barnyardgrass [1, 16]: 0
- Plant response rating, Barnyardgrass [1, 17]: 0
- Plant response rating, Corn [2, 16]: 0
- Plant response rating, Ragweed [10, 16]: 0
- Plant response rating, Ragweed [10, 17]: 0
- Plant response rating, Pigweed [3, 16]: 20
- Plant response rating, Pigweed [3, 17]: 40
- Plant response rating, Ryegrass, Italian [11, 16]: 0
- Plant response rating, Ryegrass, Italian [11, 17]: 0
- Plant response rating, Wheat [6, 16]: 0
- Plant response rating, Foxtail, Giant [8, 16]: 10
- Plant response rating, Foxtail, Giant [8, 17]: 0
- Plant response rating, Galium [12, 16]: 0
- Plant response rating, Blackgrass [13, 16]: 0

SMILES: FC(F)=Cc1cc(-c2c(F)cccc2Oc2ncc(Cl)cn2)no1 [Compound 91]
- Plant response rating, Kochia [9, 18]: 0
- Plant response rating, Kochia [9, 19]: 0
- Kochia plant response rating [9, 20]: 0
- Plant response rating, Kochia [9, 21]: 0
- Plant response rating, Barnyardgrass [1, 18]: 0
- Plant response rating, Barnyardgrass [1, 19]: 0
- Barnyardgrass plant response rating [1, 20]: 0
- Plant response rating, Barnyardgrass [1, 21]: 0
- Plant response rating, Corn [2, 18]: 0
- Plant response rating, Corn [2, 19]: 0
- Plant response rating, Ragweed [10, 18]: 0
- Plant response rating, Ragweed [10, 19]: 0
- Ragweed plant response rating [10, 20]: 0
- Plant response rating, Ragweed [10, 21]: 0
- Plant response rating, Pigweed [3, 18]: 0
- Plant response rating, Pigweed [3, 19]: 0
- Pigweed plant response rating [3, 20]: 0
- Plant response rating, Pigweed [3, 21]: 0
- Plant response rating, Ryegrass, Italian [11, 18]: 0
- Plant response rating, Ryegrass, Italian [11, 19]: 0
- Ryegrass, Italian plant response rating [11, 20]: 0
- Plant response rating, Ryegrass, Italian [11, 21]: 0
- Plant response rating, Wheat [6, 18]: 0
- Plant response rating, Wheat [6, 19]: 0
- Plant response rating, Foxtail, Giant [8, 18]: 0
- Plant response rating, Foxtail, Giant [8, 19]: 0
- Foxtail, Giant plant response rating [8, 20]: 0
- Plant response rating, Foxtail, Giant [8, 21]: 0
- Plant response rating, Galium [12, 18]: 0
- Plant response rating, Galium [12, 19]: 0
- Plant response rating, Blackgrass [13, 18]: 0
- Plant response rating, Blackgrass [13, 19]: 0

SMILES: CCOC(=O)c1cc(-c2ccccc2Oc2ncc(Cl)cn2)no1 [Compound 148]
- Plant response rating, Kochia [9, 14]: 0
- Plant response rating, Kochia [9, 15]: 0
- Plant response rating, Barnyardgrass [1, 14]: 10
- Plant response rating, Barnyardgrass [1, 15]: 0
- Plant response rating, Corn [2, 14]: 0
- Plant response rating, Ragweed [10, 14]: 0
- Plant response rating, Pigweed [3, 14]: 0
- Plant response rating, Pigweed [3, 15]: 0
- Plant response rating, Ryegrass, Italian [11, 14]: 0
- Plant response rating, Ryegrass, Italian [11, 15]: 0
- Plant response rating, Wheat [6, 14]: 0
- Plant response rating, Foxtail, Giant [8, 14]: 10
- Plant response rating, Foxtail, Giant [8, 15]: 0
- Plant response rating, Galium [12, 14]: 0
- Plant response rating, Blackgrass [13, 14]: 10

SMILES: Clc1cnc(Oc2ccccc2-c2ncns2)nc1 [Compound 172]
- Plant response rating, Kochia [9, 14]: 30
- Plant response rating, Kochia [9, 15]: 20
- Plant response rating, Barnyardgrass [1, 14]: 10
- Plant response rating, Barnyardgrass [1, 15]: 0
- Plant response rating, Corn [2, 14]: 10
- Plant response rating, Ragweed [10, 14]: 10
- Plant response rating, Ragweed [10, 15]: 0
- Plant response rating, Pigweed [3, 14]: 80
- Plant response rating, Pigweed [3, 15]: 90
- Plant response rating, Ryegrass, Italian [11, 14]: 0
- Plant response rating, Ryegrass, Italian [11, 15]: 0
- Plant response rating, Wheat [6, 14]: 0
- Plant response rating, Foxtail, Giant [8, 14]: 10
- Plant response rating, Foxtail, Giant [8, 15]: 30
- Plant response rating, Galium [12, 14]: 10
- Plant response rating, Blackgrass [13, 14]: 0

SMILES: O=Cc1cc(-c2c(Br)cccc2Oc2ncc(Cl)cn2)no1 [Compound 195]
- Plant response rating, Kochia [9, 14]: 10
- Plant response rating, Kochia [9, 15]: 0
- Plant response rating, Barnyardgrass [1, 14]: 10
- Plant response rating, Barnyardgrass [1, 15]: 40
- Plant response rating, Corn [2, 14]: 10
- Plant response rating, Ragweed [10, 14]: 10
- Plant response rating, Ragweed [10, 15]: 10
- Plant response rating, Pigweed [3, 14]: 50
- Plant response rating, Pigweed [3, 15]: 60
- Plant response rating, Ryegrass, Italian [11, 14]: 10
- Plant response rating, Ryegrass, Italian [11, 15]: 0
- Plant response rating, Wheat [6, 14]: 0
- Plant response rating, Foxtail, Giant [8, 14]: 10
- Plant response rating, Foxtail, Giant [8, 15]: 30
- Plant response rating, Galium [12, 14]: 10
- Plant response rating, Blackgrass [13, 14]: 0

SMILES: COC(=O)c1cc(-c2ccccc2Oc2ncc(Cl)cn2)no1 [Compound 235]
- Plant response rating, Kochia [9, 14]: 0
- Plant response rating, Kochia [9, 15]: 0
- Plant response rating, Barnyardgrass [1, 14]: 0
- Plant response rating, Barnyardgrass [1, 15]: 0
- Plant response rating, Corn [2, 14]: 0
- Plant response rating, Ragweed [10, 14]: 0
- Plant response rating, Ragweed [10, 15]: 0
- Plant response rating, Pigweed [3, 14]: 0
- Plant response rating, Pigweed [3, 15]: 0
- Plant response rating, Ryegrass, Italian [11, 14]: 0
- Plant response rating, Ryegrass, Italian [11, 15]: 0
- Plant response rating, Wheat [6, 14]: 0
- Plant response rating, Foxtail, Giant [8, 14]: 0
- Plant response rating, Foxtail, Giant [8, 15]: 0
- Plant response rating, Galium [12, 14]: 0
- Plant response rating, Blackgrass [13, 14]: 0
